{"source": "the supplement of paper PMC10307832", "test_in_all_cases": "relative viability (nuclei count vs DMSO), 5 days (fraction); higher = more cells survive", "key": {"[1]": {"compound": "CC(C)=CC[C@@H](O)C1=CC(=O)c2c(O)ccc(O)c2C1=O [Shikonin] + CCNC(=O)c1noc(-c2cc(C(C)C)c(O)cc2O)c1-c1ccc(CN2CCOCC2)cc1 [Luminespib] (partner 0.01 µM)", "how_it_was_run": "(§1)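 Lung cancer cell lines were pin-tool dosed in 1536-well plates on the day after seeding, with either a lone drug or a fixed anchor-drug dose plus five library-drug doses (not always all listed) in √10 steps. Nuclei were counted on 4× images after 5 days. Relative viability is the ratio of treated-well to vehicle-well nuclei counts, with each value a median of duplicate plates.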"}, "[2]": {"compound": "CC(C)=CC[C@@H](O)C1=CC(=O)c2c(O)ccc(O)c2C1=O [Shikonin] + O=C(CCCCCCC(=O)Nc1ccccc1)NO [Vorinostat] (partner 1 µM)", "how_it_was_run": "as §1"}, "[3]": {"compound": "CC(C)=CC[C@@H](O)C1=CC(=O)c2c(O)ccc(O)c2C1=O [Shikonin] + CC(C)C[C@H](NC(=O)[C@H](Cc1ccccc1)NC(=O)c1cnccn1)B(O)O [Bortezomib] (partner 0.002 µM)", "how_it_was_run": "as §1"}, "[4]": {"compound": "CC(C)=CC[C@@H](O)C1=CC(=O)c2c(O)ccc(O)c2C1=O [Shikonin] + C[C@@H](Oc1cc(-c2cnn(C3CCNCC3)c2)cnc1N)c1c(Cl)ccc(F)c1Cl [Crizotinib] (partner 1 µM)", "how_it_was_run": "as §1"}}}
{"cell line": "UMC-11", "values": [{"measurement": "relative viability", "setting": "[1]; first compound 0.01 µM", "result": 0.997}, {"measurement": "relative viability", "setting": "[1]; first compound 0.1 µM", "result": 1.05}, {"measurement": "relative viability", "setting": "[1]; first compound 0.3162 µM", "result": 0.986}, {"measurement": "relative viability", "setting": "[1]; first compound 1 µM", "result": 0.996}, {"measurement": "relative viability", "setting": "[2]; first compound 0.01 µM", "result": 0.322}, {"measurement": "relative viability", "setting": "[2]; first compound 0.1 µM", "result": 0.34}, {"measurement": "relative viability", "setting": "[2]; first compound 0.3162 µM", "result": 0.415}, {"measurement": "relative viability", "setting": "[2]; first compound 1 µM", "result": 0.396}, {"measurement": "relative viability", "setting": "[3]; first compound 0.01 µM", "result": 0.773}, {"measurement": "relative viability", "setting": "[3]; first compound 0.1 µM", "result": 0.854}, {"measurement": "relative viability", "setting": "[3]; first compound 0.3162 µM", "result": 0.675}, {"measurement": "relative viability", "setting": "[3]; first compound 1 µM", "result": 0.812}, {"measurement": "relative viability", "setting": "[4]; first compound 0.01 µM", "result": 0.745}, {"measurement": "relative viability", "setting": "[4]; first compound 0.1 µM", "result": 0.559}, {"measurement": "relative viability", "setting": "[4]; first compound 0.3162 µM", "result": 0.658}, {"measurement": "relative viability", "setting": "[4]; first compound 1 µM", "result": 0.633}]}
